# Legend:
# [1] = test system: delayed hypersensitivity reaction (adjuvant arthritis, Mycobacterium butyricum); assay: adjuvant arthritis test in rats; assay type: in vivo, rat (male Lister hooded); details: for change in vivo at 10 mg/kg: 10 mg/kg p.o.; for change in vivo at 40 mg/kg / significant potentiating effect in the adjuvant arthritis test: 40 mg/kg p.o.; for change in vivo at 20 mg/kg: 20 mg/kg p.o.
# Excerpt: (§1) The adjuvant arthritis test in rats produces a measureable extent of a delayed hypersensitivity reaction and can be used for a determination of variations in the extent of the delayed hypersensitivity reaction upon drug administration to the host. An increase in the extent of the delayed hypersensitivity reaction upon drug administration consequently indicates enhanced cell-mediated immunity in the host.
# This example illustrates the effect of the compounds of the general formula I in the adjuvant arthritis test in rats.
# as §1, with “produces” for “produces a measureable extent of”, “variations” for “variations in the extent”
# A modification of a method described in (12) was used. Male Lister hooded rats weighing 250-275 g were used. At least 9 animals were used in each experimental group.
# A single intradermal injection of 0.5 mg/0.1 ml heat killed Mycobacterium butyricum suspended in sterile liquid paraffinum was given into the right hind foot of all rats. After this injection, day 0, the volume of the left hind paw, measured by water displacement, was followed to the end of the experiment.
# The substances suspended in aqueous methocel solution 10 ml/kg were given intragastrically. The control group was given methocel solution 10 ml/kg. The different groups of animals were thus treated once daily from day -4 to day 14. The effect of the substances was assessed by the left foot volume expressed in percent after comparison with the control groups.
# [2] = test system: delayed hypersensitivity reaction (pertussis vaccine pleurisy); assay: pertussis vaccine pleurisy test in rats; assay type: in vivo, rat (male Sprague-Dawley); details: 10 mg/kg p.o.; for change in vivo at 10 mg/kg: Rattus norvegicus, po, 48 h, once daily day 10 to day 13, vs control, preliminary, read-out: Enhancement of the delayed hypersensitivity reaction assessed by the exudate vol.
# Procedure, shortened: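 Male Sprague-Dawley rats (250-275 g, ≥10/group) sensitized day 0 with heat-killed B. pertussis in Freund's incomplete adjuvant into hind and forepaw, challenged intrapleurally day 12. Compounds in aqueous methocel given intragastrically once daily days 10-13. Pleural exudate volume measured day 14, expressed as percent of methocel control.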
# [3] = test system: carrageenan-induced edema; assay: carrageenan edema test in rats; assay type: in vivo, rat (female Sprague-Dawley); details: for change in vivo at 80 mg/kg: Rattus norvegicus, po, 80 mg/kg p.o., 30 min before carrageenan, edema weight 3 h after, vs control, preliminary, read-out: Potentiation of the carrageenan edema, %; for significant potentiation of the carrageenan edema: dose within the range 10-160 mg/kg p.o.
# Procedure, shortened: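 Female Sprague-Dawley rats (110-120 g, ≥10 per group) received compound intragastrically in aqueous methocel 30 min before plantar carrageenan injection into the right hind paw. At 3 h, right minus left paw weight gave edema weight, expressed as percent of methocel controls.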
# mice = mice p.o.; reference 13; cited from earlier work
# [4] = Rattus norvegicus, po, 336 h, once daily day -4 to day 14, vs control, preliminary, read-out: Increase of the volume of the left foot
SMILES,change in vivo at 10 mg/kg [2] [%],change in vivo at 80 mg/kg [3] [%],significant potentiating effect in the adjuvant arthritis test [1],significant enhancing effect in the pertussis vaccine pleurisy test [2],other results
"COc1ccc(N(C)C(=O)c2c(O)c3ccccc3n(C)c2=O)cc1 [21:6, N-(4-methoxyphenyl)-N-methyl-1,2-dihydro-4-hydroxy-1-methyl-2-oxo-quinoline-3-carboxamide]",90,38,,,"change in vivo at 10 mg/kg [1, 4]: 41%"
"CN(C(=O)c1c(O)c2ccccc2n(C)c1=O)c1ccc(Cl)cc1 [21:9, N-(4-chlorophenyl)-N-methyl-1,2-dihydro-4-hydroxy-1-methyl-2-oxo-quinoline-3-carboxamide]",84,52,,,"change in vivo at 10 mg/kg [1, 4]: 51%"
"COc1c(C(=O)Nc2ccccc2)c(=O)n(C)c2ccccc12 [6:1, N-phenyl-1,2-dihydro-4-methoxy-1-methyl-2-oxo-quinoline-3-carboxamide]",91,60,,,"change in vivo at 40 mg/kg [1, 4]: 34%"
"CCN(C(=O)c1c(O)c2ccccc2n(C)c1=O)c1ccccc1 [21:5, N-ethyl-N-phenyl-1,2-dihydro-4-hydroxy-1-methyl-2-oxo-quinoline-3-carboxamide]",29,,significant potentiating effect,,significant potentiation of the carrageenan edema [3]: potentiate significantly
"CN(C(=O)c1c(O)c2ccccc2n(C)c1=O)c1ccc(F)cc1 [21:35, N-(4-fluorophenyl)-N-methyl-1,2-dihydro-4-hydroxy-1-methyl-2-oxo-quinoline-3-carboxamide]",,,significant potentiating effect,significant enhancing effect,significant potentiation of the carrageenan edema [3]: potentiate significantly
"COc1ccc2c(c1)c(O)c(C(=O)Nc1ccccc1)c(=O)n2C [1:2, N-phenyl-1,2-dihydro-4-hydroxy-6-methoxy-1-methyl-2-oxo-quinoline-3-carboxamide]",,61,significant potentiating effect,significant enhancing effect,
"CN(C(=O)c1c(O)c2ccccc2n(C)c1=O)c1ccccn1 [21:7, N-methyl-N-(2-pyridyl)-1,2-dihydro-4-hydroxy-1-methyl-2-oxo-quinoline-3-carboxamide]",21,,significant potentiating effect,,significant potentiation of the carrageenan edema [3]: potentiate significantly
"Cn1c(=O)c(C(=O)Nc2cnccn2)c(O)c2ccccc21 [7:4, N-pyrazinyl-1,2-dihydro-4-hydroxy-1-methyl-2-oxo-quinoline-3-carboxamide]",27,34,,,"change in vivo at 40 mg/kg [1, 4]: 29%"
"COc1cccc2c(O)c(C(=O)Nc3ccccc3)c(=O)n(C)c12 [1:22, N-phenyl-1,2-dihydro-4-hydroxy-8-methoxy-1-methyl-2-oxo-quinoline-3-carboxamide]",,58,significant potentiating effect,significant enhancing effect,
"Cn1c(=O)c(C(=O)Nc2nccs2)c(O)c2ccccc21 [7:1, N-(2-thiazolyl)-1,2-dihydro-4-hydroxy-1-methyl-2-oxo-quinoline-3-carboxamide]",81,84,,,"change in vivo at 20 mg/kg [1, 4]: 44%; change in vivo at 40 mg/kg [1, 4]: 35%"
"COc1ccc(N(C)C(=O)c2c(O)c3cc(OC)ccc3n(C)c2=O)cc1 [21:14, N-(4-methoxyphenyl)-N-methyl-1,2-dihydro-4-hydroxy-6-methoxy-1-methyl-2-oxo-quinoline-3-carboxamide]",,,significant potentiating effect,significant enhancing effect,significant potentiation of the carrageenan edema [3]: potentiate significantly
"CN(C)c1ccc(NC(=O)c2c(O)c3ccccc3n(C)c2=O)cc1 [1:11, N-/4-dimethylaminophenyl/-1,2-dihydro-4-hydroxy-1-methyl-2-oxo-quinoline-3-carboxamide]",37,76,,,"change in vivo at 40 mg/kg [1, 4]: 45%"
"CN(C)c1ccc(NC(=O)c2c(O)c3cc(N(C)C)cc4c3n(c2=O)CCC4)cc1 [13:3, N-(4-dimethylaminophenyl)-1,2-dihydro-6-dimethylamino-4-hydroxy-2-oxo-1.8-trimethylene-quinoline-3-carboxamide]",,,significant potentiating effect,significant enhancing effect,significant potentiation of the carrageenan edema [3]: potentiate significantly
"CN(C(=O)c1c(O)c2ccccc2n(C)c1=O)c1ccccc1 [1:43, N-phenyl-N-methyl-1,2-dihydro-4-hydroxy-1-methyl-2-oxo-quinoline-3-carboxamide]",70,84,significant potentiating effect,,"change in vivo at 10 mg/kg [1, 4]: 48%"
"Cn1c(=O)c(C(=O)Nc2ccccc2)c(O)c2c(F)cccc21 [1:19, N-phenyl-1,2-dihydro-5-fluoro-4-hydroxy-1-methyl-2-oxo-quinoline-3-carboxamide]",,67,significant potentiating effect,significant enhancing effect,
"CCn1c(=O)c(C(=O)Nc2ccccc2)c(O)c2ccccc21 [1:10, N-phenyl-1,2-dihydro-1-ethyl-4-hydroxy-2-oxo-quinoline-3-carboxamide]",30,68,significant potentiating effect,,
"Cn1c(=O)c(C(=O)Nc2ccc(CC(=O)O)cc2)c(O)c2ccccc21 [1:12, N-/4-carboxymethylphenyl/-1,2-dihydro-4-hydroxy-1-methyl-2-oxo-quinoline-3-carboxamide]",65,29,significant potentiating effect,,
"Cn1c(=O)c(C(=O)Nc2ccccc2)c(O)c2ccccc21 [1:1, N-phenyl-1,2-dihydro-4-hydroxy-1-methyl-2-oxo-quinoline-3-carboxamide]",55,40,,,"change in vivo at 20 mg/kg [1, 4]: 50%; change in vivo at 40 mg/kg [1, 4]: 41%"
"c1ccc([C@H]2CN3CCSC3=N2)cc1 [Levamisole, levamisole, reference compound]",13,,,,"change in vivo at 5 mg/kg ([1]; Rattus norvegicus, po, 336 h, 5 mg/kg p.o., once daily day -4 to day 14, vs control, preliminary, read-out: Increase of the volume of the left foot): 4%; change in vivo at 10 mg/kg [1, 4]: 12%; acute LD50 (mice): 285 mg/kg"
"Cn1c(=O)c(C(=O)Nc2ccc(Cl)cc2)c(O)c2ccccc21 [1:9, N-/4-chlorophenyl/-1,2-dihydro-4-hydroxy-1-methyl-2-oxo-quinoline-3-carboxamide]",,48,significant potentiating effect,significant enhancing effect,
"O=C(Nc1ccccc1)c1c(O)c2cccc3c2n(c1=O)CC3 [2:2, N-phenyl-1,2-dihydro-1,8-ethylene-4-hydroxy-2-oxo-quinoline-3-carboxamide]",64,43,,,"change in vivo at 40 mg/kg [1, 4]: 40%"
